Counter-ions that a name gives are not always drawn.
What was measured:
Test in all cases: Assay B: in vitro antibacterial activity, broth microdilution MIC (NCCLS)
Assay type in all cases: cell-based
[1] = system: Staphylococcus aureus ATCC 6538P; settings: Table 2, Assay B, cation-adjusted Mueller Hinton broth, 35° C., 16 to 20 hr; code A = Staphylococcus aureus ATCC 6538P; unit assumed
In short: (§1)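 NCCLS broth microdilution with two-fold dilutions in cation-adjusted Mueller Hinton broth, inoculum about 5×10^5 CFU/mL, 35 °C in ambient air for 16-20 h; MIC read visually as lowest concentration completely inhibiting growth. S. pneumoniae: 3% lysed horse blood, 20-24 h; H. influenzae: 5 g/L yeast extract, 0.3 mmol/L hematin, 15 mg/L NAD, 20-24 h.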

Escherichia coli JUHL = settings: Table 2, Assay B, cation-adjusted Mueller Hinton broth, 35° C., 16 to 20 hr; code D = Escherichia coli JUHL; unit assumed
In short: as §1

[2] = system: Enterococcus faecalis PIU 1967; settings: Table 2, Assay B, cation-adjusted Mueller Hinton broth, 35° C., 16 to 20 hr; code B = Enterococcus faecalis PIU 1967; unit assumed
In short: as §1

[3] = system: Streptococcus pneumoniae ATCC 6303; settings: Table 2, Assay B, Mueller Hinton broth with 3% lysed horse blood, 20 to 24 hr; code F = Streptococcus pneumoniae ATCC 6303; unit assumed
In short: as §1

[4] = system: Haemophilus influenzae DILL AMP R; settings: Table 2, Assay B, Mueller Hinton broth with yeast extract, hematin and NAD, 20 to 24 hr; code E = Haemophilus influenzae DILL AMP R; unit assumed
In short: as §1

| Compound | Antibacterial Activity (MIC's), A [1] | Antibacterial Activity (MIC's), D (Escherichia coli JUHL) | Antibacterial Activity (MIC's), B [2] | Antibacterial Activity (MIC's), F [3] | Antibacterial Activity (MIC's), E [4] |
| --- | --- | --- | --- | --- | --- |
| COc1c(-c2cc3c(s2)CCCC3CO)ccc2c(=O)c(C(=O)O)cn(C3CC3)c12 (stereo not drawn) [Example 110, 1-cyclopropyl-7-(4-(hydroxymethyl)-4,5,6,7-tetrahydro-1-benzothien-2-yl)-8-methoxy-4-oxo-1,4-dihydro-3-quinolinecarboxylic acid] | 0.004 µg/mL | 0.25 µg/mL | 0.06 µg/mL | 0.06 µg/mL | 0.015 µg/mL |
| COc1c(-c2cc3c(s2)CCCC3NCc2cccnc2)ccc2c(=O)c(C(=O)O)cn(C3CC3)c12.Cl.Cl (stereo not drawn) [Example 94, 1-cyclopropyl-8-methoxy-4-oxo-7-(4-((3-pyridinylmethyl)amino)-4,5,6,7-tetrahydro-1-benzothien-2-yl)-1,4-dihydro-3-quinolinecarboxylic acid dihydrochloride] | 0.125 µg/mL | 1 µg/mL | 1 µg/mL | 0.5 µg/mL | 0.25 µg/mL |
| Cl.NC1CCCc2sc(-c3ccc4c(=O)c(C(=O)O)cn(C5CC5)c4c3Cl)cc21 (stereo not drawn) [Example 329, 7-(4-amino-4,5,6,7-tetrahydro-1-benzothien-2-yl)-8-chloro-1-cyclopropyl-4-oxo-1,4-dihydroquinoline-3-carboxylic acid hydrochloride] | ≤ 0.004 µg/mL | 0.03 µg/mL | 0.03 µg/mL | 0.008 µg/mL | 0.008 µg/mL |
| COc1c(-c2cc3c(s2)CCC(C)C3O)ccc2c(=O)c(C(=O)O)cn(C3CC3)c12 (stereo not drawn) [Example 185, 1-cyclopropyl-7-(4-hydroxy-5-methyl-4,5,6,7-tetrahydro-1-benzothien-2-yl)-8-methoxy-4-oxo-1,4-dihydro-3-quinolinecarboxylic acid] | 0.015 µg/mL | 0.5 µg/mL | 0.25 µg/mL | 0.5 µg/mL | 0.125 µg/mL |
| Cl.NC1CCCc2cc(-c3ccc4c(=O)c(C(=O)O)cn(C5CC5)c4c3)sc21 (stereo not drawn) [Example 288, 7-(7-amino-4,5,6,7-tetrahydro-1-benzothien-2-yl)-1-cyclopropyl-4-oxo-1,4-dihydroquinoline-3-carboxylic acid hydrochloride] | 0.03 µg/mL | 0.03 µg/mL | 0.125 µg/mL | 0.03 µg/mL | 0.015 µg/mL |
| COc1c(-c2cc3c(s2)CCC(Br)C3=O)ccc2c(=O)c(C(=O)O)cn(C3CC3)c12 (stereo not drawn) [Example 58, 7-(5-bromo-4-oxo-4,5,6,7-tetrahydro-1-benzothien-2-yl)-1-cyclopropyl-8-methoxy-4-oxo-1,4-dihydro-3-quinolinecarboxylic acid] | 0.004 µg/mL | 0.25 µg/mL | 0.06 µg/mL | 0.06 µg/mL | 0.015 µg/mL |
| COc1c(-c2cc3c(s2)C(O)C2(CC3)CC2)ccc2c(=O)c(C(=O)O)cn(C3CC3)c12 (stereo not drawn) [Example 267, 7-(7-hydroxy-6-spirocyclopropyl-4,5,6,7-tetrahydro-1-benzothien-2-yl)-1-cyclopropyl-8-methoxy-4-oxo-1,4-dihydroquinoline-3-carboxylic acid] | ≤ 0.004 µg/mL | 0.5 µg/mL | 0.125 µg/mL | 0.25 µg/mL | 0.06 µg/mL |
| COc1c(-c2cc3c(s2)CCC/C3=N\OCc2cccnc2)ccc2c(=O)c(C(=O)O)cn(C3CC3)c12 [Example 182, 1-cyclopropyl-8-methoxy-4-oxo-7-((4E)-4-((3-pyridinylmethoxy)imino)-4,5,6,7-tetrahydro-1-benzothien-2-yl)-1,4-dihydro-3-quinolinecarboxylic acid] | 0.03 µg/mL | 1 µg/mL | 0.25 µg/mL | 0.25 µg/mL | 0.125 µg/mL |
| COc1c(-c2cc3c(s2)CC(=O)CC3)ccc2c(=O)c(C(=O)O)cn(C3CC3)c12 [Example 59, 1-cyclopropyl-8-methoxy-4-oxo-7-(6-oxo-4,5,6,7-tetrahydro-1-benzothien-2-yl)-1,4-dihydro-3-quinolinecarboxylic acid] | 0.03 µg/mL | 8 µg/mL | 1 µg/mL | 0.5 µg/mL | 1 µg/mL |
| CNC1CCCc2sc(-c3nc4c(cc3F)c(=O)c(C(=O)O)cn4C3CC3)cc21 (stereo not drawn) [Example 108, 1-cyclopropyl-6-fluoro-7-(4-(methylamino)-4,5,6,7-tetrahydro-1-benzothien-2-yl)-4-oxo-1,4-dihydro[1,8]naphthyridine-3-carboxylic acid hydrochloride] | 0.015 µg/mL | 0.03 µg/mL | 1 µg/mL | 0.25 µg/mL | 0.008 µg/mL |
| COc1c(-c2cc3c(s2)CC(=O)C3)ccc2c(=O)c(C(=O)O)cn(C3CC3)c12 [Example 247, 1-cyclopropyl-8-methoxy-4-oxo-7-(5-oxo-5,6-dihydro-4H-cyclopenta[b]thien-2-yl)-1,4-dihydro-3-quinolinecarboxylic acid] | 0.125 µg/mL | 4 µg/mL | 2 µg/mL | 0.25 µg/mL | 0.25 µg/mL |
| COc1c(-c2cc3c(s2)CCCC3NC2CCN(C)CC2)ccc2c(=O)c(C(=O)O)cn(C3CC3)c12.Cl.Cl (stereo not drawn) [Example 133, 1-cyclopropyl-8-methoxy-7-(4-((1-methyl-4-piperidinyl)amino)-4,5,6,7-tetrahydro-1-benzothien-2-yl)-4-oxo-1,4-dihydro-3-quinolinecarboxylic acid dihydrochloride] | 0.5 µg/mL | 1 µg/mL | 1 µg/mL | 1 µg/mL | 1 µg/mL |
| Nc1cc(-c2cc3c(s2)C(N)CCC3)c(F)c2c1c(=O)c(C(=O)O)cn2C1CC1.O=C(O)C(F)(F)F (stereo not drawn) [Example 349, 5-amino-7-(7-amino-4,5,6,7-tetrahydro-1-benzothien-2-yl)-1-cyclopropyl-8-fluoro-4-oxo-1,4-dihydroquinoline-3-carboxylic acid trifluoroacetic acid salt] | 0.015 µg/mL | 0.03 µg/mL | 0.125 µg/mL | 0.03 µg/mL | ≤ 0.004 µg/mL |
| COc1c(-c2cc3c(s2)CNCC3N)ccc2c(=O)c(C(=O)O)cn(C3CC3)c12 (stereo not drawn) [Example 225, 7-(4-amino-4,5,6,7-tetrahydrothieno[2,3-c]pyridin-2-yl)-1-cyclopropyl-8-methoxy-4-oxo-1,4-dihydro-3-quinolinecarboxylic acid] | 0.5 µg/mL | 1 µg/mL | 0.5 µg/mL | 0.25 µg/mL | 0.125 µg/mL |
| CNC1CCCc2cc(-c3c(F)cc4c(=O)c(C(=O)O)cn(C5CC5)c4c3OC)sc21.Cl (stereo not drawn) [Example 246, 1-cyclopropyl-6-fluoro-8-methoxy-7-(7-(methylamino)-4,5,6,7-tetrhydro-1-benzothien-2-yl)-4-oxo-1,4-dihydro-3-quinolinecarboxiylic acid hydrochloride] | 0.004 µg/mL | 0.25 µg/mL | 0.25 µg/mL | 0.06 µg/mL | 0.03 µg/mL |
| COc1c(-c2cc3c(s2)C(N)C(C)CC3)ccc2c(=O)c(C(=O)O)cn(C3CC3)c12.Cl (stereo not drawn) [Example 235, 7-(7-amino-6-methyl-4,5,6,7-tetrahydro-1-benzothien-2-yl)-1-cyclopropyl-8-methoxy-4-oxo-1,4-dihydro-3-quinolinecarboxylic acid hydrochloride] | 0.015 µg/mL | 0.25 µg/mL | 0.25 µg/mL | 0.06 µg/mL | 0.06 µg/mL |
| COc1c(-c2cc3c(s2)CCCC3=NN2CCN(C)CC2)ccc2c(=O)c(C(=O)O)cn(C3CC3)c12 [Example 92, 1-cyclopropyl-8-methoxy-7-((4E/Z)-4-((4-methyl-1-piperazinyl)imino)-4,5,6,7-tetrahydro-1-benzothien-2-yl)-4-oxo-1,4-dihydro-3-quinolinecarboxylic acid] | 0.03 µg/mL | 1 µg/mL | 0.25 µg/mL | 0.5 µg/mL | 0.06 µg/mL |
| COc1c(-c2cc3c(s2)C(N)CN(S(C)(=O)=O)C3)ccc2c(=O)c(C(=O)O)cn(C3CC3)c12 (stereo not drawn) [Example 230, 7-(7-amino-5-(methylsulfonyl)-4,5,6,7-tetrahydrothieno[3,2-c]pyridin-2-yl)-1-cyclopropyl-8-methoxy-4-oxo-1,4-dihydro-3-quinolinecarboxylic acid] | 0.125 µg/mL | 1 µg/mL | 1 µg/mL | 0.125 µg/mL | 0.25 µg/mL |
